Experimental data reported in ChEMBL document CHEMBL1201862, “PubChem BioAssay data set” (2004).
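Where inhibition never reached the appropriate level, the endpoint shown equals the highest concentration tested. Otherwise, values were interpolated linearly from a five-concentration, 48-hour dose response in 96-well plates. Here, GI50 denotes the concentration required for 50% inhibition of growth.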 The source made the active and inactive calls. Cut-off read from the data, not from the text of the source: active = GI50 up to about 1.1 µM and inactive = higher.

Experiments:
Assay in all cases: NCI tumour cell line growth inhibition, 48 h
[1] = tested on: SF-268
[2] = tested on: EKVX
[3] = tested on: Hs-578T
[4] = tested on: UACC-257
[5] = tested on: K562
[6] = tested on: SNB-19
[7] = tested on: SNB-75
[8] = tested on: SK-MEL-28
[9] = tested on: M14
[10] = tested on: RXF 393
[11] = tested on: UO-31
[12] = tested on: UACC-62
[13] = tested on: NCI-H522
[14] = tested on: NCI/ADR-RES
[15] = tested on: MOLT-4
[16] = tested on: IGROV-1
[17] = tested on: DU-145
[18] = tested on: ACHN
[19] = tested on: COLO 205
[20] = tested on: HT-29
[21] = tested on: U-251
[22] = tested on: BT-549
[23] = tested on: HCT-116
[24] = tested on: HCC 2998
[25] = tested on: MDA-N
[26] = tested on: 786-0
[27] = tested on: MDA-MB-231
[28] = tested on: OVCAR-8
[29] = tested on: OVCAR-4
[30] = tested on: NCI-H226
[31] = tested on: CCRF-CEM
[32] = tested on: RPMI-8226
[33] = tested on: SK-MEL-5
[34] = tested on: KM12
[35] = tested on: HOP-62
[36] = tested on: MDA-MB-435
[37] = tested on: PC-3
[38] = tested on: SN12C
[39] = tested on: SW-620
[40] = tested on: A549
[41] = tested on: OVCAR-5
[42] = tested on: NCI-H460
[43] = tested on: NCI-H23
[44] = tested on: OVCAR-3
[45] = tested on: TK-10
[46] = tested on: T47D
[47] = tested on: Malme-3M
[48] = tested on: SK-MEL-2
[49] = tested on: HCT-15
[50] = tested on: LOX IMVI
[51] = tested on: SR
[52] = tested on: CAKI-1
[53] = tested on: HOP-92
[54] = tested on: SK-OV-3
[55] = tested on: HL-60
[56] = tested on: SF-295
[57] = tested on: A498
[58] = tested on: MCF7

In the case of `CCOC(=O)c1nnsc1NC(=O)Nc1ccc(Cl)cc1`, the GI50 [1] is reported as 57.5 µM (inactive), the GI50 [2] is reported as 42 µM (inactive) and the GI50 [3] is reported as 30.1 µM (inactive). The GI50 [4] was > 100 µM (inactive), the GI50 [5] was > 100 µM (inactive) and the GI50 [6] was > 100 µM (inactive). For the same compound, the GI50 [7] was 21.1 µM (inactive), the GI50 [8] was > 100 µM (inactive) and the GI50 [9] was 77.1 µM (inactive). For the same compound, the GI50 [10] was > 100 µM (inactive), the GI50 [11] was 31.1 µM (inactive) and the GI50 [12] was 71 µM (inactive). For the same compound, the GI50 [13] was 15.8 µM (inactive), the GI50 [14] was 25.1 µM (inactive) and the GI50 [15] was > 100 µM (inactive). For the same compound, the GI50 [16] was 31 µM (inactive), the GI50 [17] was 56.5 µM (inactive) and the GI50 [18] was > 100 µM (inactive). The GI50 [19] was 67.3 µM (inactive), the GI50 [20] was 54.3 µM (inactive) and the GI50 [21] was > 100 µM (inactive). For the same compound, the GI50 [22] was > 100 µM (inactive), the GI50 [23] was 25.4 µM (inactive) and the GI50 [24] was 38.5 µM (inactive). For the same compound, the GI50 [25] was 32.8 µM (inactive), the GI50 [26] was 21.1 µM (inactive) and the GI50 [27] was 20.7 µM (inactive). For the same compound, the GI50 [28] was 18.5 µM (inactive), the GI50 [29] was 21.1 µM (inactive) and the GI50 [30] was 36.6 µM (inactive). The GI50 [31] was > 100 µM (inactive), the GI50 [32] was 44.5 µM (inactive) and the GI50 [33] was > 100 µM (inactive). For the same compound, the GI50 [34] was 51.6 µM (inactive), the GI50 [35] was 68.9 µM (inactive) and the GI50 [36] was > 100 µM (inactive). For the same compound, the GI50 [37] was 33 µM (inactive), the GI50 [38] was 35.2 µM (inactive) and the GI50 [39] was > 100 µM (inactive). The GI50 [40] was 43 µM (inactive), the GI50 [41] was > 100 µM (inactive) and the GI50 [42] was 7 µM (inactive). For the same compound, the GI50 [43] was 32.8 µM (inactive), the GI50 [44] was 43.2 µM (inactive) and the GI50 [45] was > 100 µM (inactive). For the same compound, the GI50 [46] was 34.3 µM (inactive), the GI50 [47] was 75.5 µM (inactive) and the GI50 [48] was > 100 µM (inactive). For the same compound, the GI50 [49] was 61.9 µM.

With `O=C1C=C(NCCc2ccc(O)cc2)C(=O)C=C1NCCc1ccc(O)cc1` the GI50 [1] was > 100 µM (inactive), the GI50 [2] was > 100 µM (inactive) and the GI50 [3] was 85.3 µM (inactive). The GI50 [4] was > 100 µM (inactive), the GI50 [50] was 35.1 µM (inactive) and the GI50 [5] was 38 µM (inactive). The GI50 [6] was > 100 µM (inactive), the GI50 [51] was > 100 µM (inactive) and the GI50 [7] was 19.6 µM (inactive). The GI50 [8] was > 100 µM (inactive), the GI50 [52] was > 100 µM (inactive) and the GI50 [53] was 71.1 µM (inactive). For the same compound, the GI50 [10] was > 100 µM (inactive), the GI50 [11] was > 100 µM (inactive) and the GI50 [12] was > 100 µM (inactive). The GI50 [54] was 54.3 µM (inactive), the GI50 [13] was > 100 µM (inactive) and the GI50 [14] was > 100 µM (inactive). The GI50 [15] was 46.5 µM (inactive), the GI50 [55] was 19.2 µM (inactive) and the GI50 [16] was > 100 µM (inactive). The GI50 [17] was > 100 µM (inactive), the GI50 [18] was > 100 µM (inactive) and the GI50 [19] was > 100 µM (inactive). The GI50 [56] was > 100 µM (inactive), the GI50 [20] was > 100 µM (inactive) and the GI50 [21] was 32.2 µM (inactive). The GI50 [22] was > 100 µM (inactive), the GI50 [23] was 50 µM (inactive) and the GI50 [24] was > 100 µM (inactive). For the same compound, the GI50 [57] was > 100 µM (inactive), the GI50 [26] was > 100 µM (inactive) and the GI50 [58] was > 100 µM (inactive). The GI50 [27] was 47.1 µM (inactive), the GI50 [28] was 48.8 µM (inactive) and the GI50 [29] was > 100 µM (inactive). For the same compound, the GI50 [30] was > 100 µM (inactive), the GI50 [31] was 46.9 µM (inactive) and the GI50 [32] was > 100 µM (inactive). For the same compound, the GI50 [33] was > 100 µM (inactive), the GI50 [34] was > 100 µM (inactive) and the GI50 [35] was 64 µM (inactive). For the same compound, the GI50 [36] was 49.1 µM (inactive), the GI50 [37] was > 100 µM (inactive) and the GI50 [38] was > 100 µM (inactive). For the same compound, the GI50 [39] was > 100 µM (inactive), the GI50 [40] was > 100 µM (inactive) and the GI50 [41] was > 100 µM (inactive). The GI50 [42] was > 100 µM (inactive), the GI50 [43] was > 100 µM (inactive) and the GI50 [44] was > 100 µM (inactive). The GI50 [45] was > 100 µM (inactive), the GI50 [46] was > 100 µM (inactive) and the GI50 [47] was > 100 µM (inactive). The GI50 [48] was > 100 µM (inactive) and the GI50 [49] was greater than 100 µM.
